Experimental data reported in US8093183B2, “Methods for using polyol esters to control pests” (S.C. Johnson & Son, Inc., priority 2004, dated 2012).
Read-outs that look alike come from different tables or passages of the source.

Test system: German cockroaches
Details: spraying about three grams of formulation
Description: In our experiments we created aqueous solutions of sucrose octanoate and sorbitol octanoate by diluting the more concentrated formulations provided by the aforesaid manufacturers. We created varied concentrations ranging from 0.05% through 10%.
We tested our formulations by spraying them on cockroaches, ants, crickets, silverfish, wasps, bristletails, hornets, centipedes, earwigs, spiders and sowbugs.

Substance: sucrose octanoate
- kill at 24 hours (0.1% concentration): essentially no kill
- kill at 24 hours (1% concentration): about 80%
- kill (5% concentration): 100%
